Source: ChEMBL document CHEMBL1201862, “PubChem BioAssay data set” (2004)
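Dose response: 5 concentrations. Exposure: 48 h. Format: 96-well plates. Endpoint: linear interpolation; highest concentration if not reached. Abbreviation: GI50, concentration required for 50% inhibition of growth.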 Active and inactive are the calls of the source. Rule as the data show it: active = GI50 up to about 1.1 µM and inactive = higher.

Assays:
Experiment in all cases: NCI anticancer screen, dose series, 48 h
RPMI-8226 = system: RPMI-8226
U-251 = system: U-251
SF-539 = system: SF-539
KM12 = system: KM12
NCI-H460 = system: NCI-H460
ACHN = system: ACHN
Hs-578T = system: Hs-578T
TK-10 = system: TK-10
A498 = system: A498
OVCAR-4 = system: OVCAR-4
BT-549 = system: BT-549
DU-145 = system: DU-145
NCI/ADR-RES = system: NCI/ADR-RES
SW-620 = system: SW-620
CAKI-1 = system: CAKI-1
HCT-15 = system: HCT-15
OVCAR-8 = system: OVCAR-8
Malme-3M = system: Malme-3M
SR = system: SR

SMILES	GI50 (RPMI-8226)	GI50 (U-251)	GI50 (SF-539)	GI50 (KM12)	GI50 (NCI-H460)	GI50 (ACHN)	GI50 (Hs-578T)	GI50 (TK-10)	GI50 (A498)	GI50 (OVCAR-4)	GI50 (BT-549)	GI50 (DU-145)	GI50 (NCI/ADR-RES)	GI50 (SW-620)	GI50 (CAKI-1)	GI50 (HCT-15)	GI50 (OVCAR-8)	GI50 (Malme-3M)	GI50 (SR)
COc1ccc(S(=O)(=O)c2nnc(S(=O)(=O)Cc3ccccc3)s2)cc1	6.59 µM (inactive)	19.5 µM (inactive)	12 µM (inactive)	29.6 µM (inactive)	17.4 µM (inactive)	12.7 µM (inactive)	21.3 µM (inactive)	15.7 µM (inactive)	18.6 µM (inactive)	44.5 µM (inactive)	27 µM (inactive)	17 µM (inactive)	43.7 µM (inactive)	15 µM (inactive)	17.5 µM (inactive)	25.7 µM	21.9 µM (inactive)	–	–
CCNC(=O)c1cc(Cl)ccc1NC(=O)C12CC3CC(CC(C3)C1)C2	24.5 µM (inactive)	34.5 µM (inactive)	> 100 µM (inactive)	27.2 µM (inactive)	34.3 µM (inactive)	44.1 µM (inactive)	> 100 µM (inactive)	52.8 µM (inactive)	> 100 µM (inactive)	36.1 µM (inactive)	36.6 µM (inactive)	28.4 µM (inactive)	47.8 µM (inactive)	47.2 µM (inactive)	30.3 µM (inactive)	32.7 µM	34.3 µM (inactive)	> 100 µM (inactive)	–
CCOP(=O)(/C=C/n1cnc2c(=O)n(C(C)=O)c(N)nc21)OCC	> 100 µM (inactive)	> 100 µM (inactive)	> 100 µM (inactive)	> 100 µM (inactive)	> 100 µM (inactive)	> 100 µM (inactive)	> 100 µM (inactive)	> 100 µM (inactive)	> 100 µM (inactive)	> 100 µM (inactive)	> 100 µM (inactive)	> 100 µM (inactive)	> 100 µM (inactive)	> 100 µM (inactive)	> 100 µM (inactive)	> 100 µM	> 100 µM (inactive)	–	–
CC[C@@H]1CC[C@@H]2[C@H](CC[C@]3(C)[C@@H](O)CC[C@@H]23)[C@H]1CO	67 µM (inactive)	> 100 µM (inactive)	> 100 µM (inactive)	> 100 µM (inactive)	> 100 µM (inactive)	> 100 µM (inactive)	> 100 µM (inactive)	> 100 µM (inactive)	> 100 µM (inactive)	71 µM (inactive)	> 100 µM (inactive)	> 100 µM (inactive)	91.4 µM (inactive)	> 100 µM (inactive)	> 100 µM (inactive)	> 100 µM	> 100 µM (inactive)	> 100 µM (inactive)	–
Nc1nc(Cl)cc(NCC2(CO)CCC(Cc3ccccc3)C2)n1 (stereo unspecified)	12 µM (inactive)	25.6 µM (inactive)	29 µM (inactive)	20.2 µM (inactive)	18.6 µM (inactive)	20 µM (inactive)	25.4 µM (inactive)	26 µM (inactive)	12.6 µM (inactive)	13.6 µM (inactive)	16.2 µM (inactive)	27.8 µM (inactive)	20.3 µM (inactive)	15 µM (inactive)	19.3 µM (inactive)	27.4 µM	15.6 µM (inactive)	10.2 µM (inactive)	–
NCCCN(CCCCN(CCCN)Cc1ccc2ccccc2c1)Cc1ccc2ccccc2c1	2.74 µM (inactive)	1.8 µM (inactive)	1.8 µM (inactive)	1.86 µM (inactive)	1.55 µM (inactive)	1.9 µM (inactive)	1.63 µM (inactive)	2.21 µM (inactive)	2.1 µM (inactive)	1.99 µM (inactive)	2.23 µM (inactive)	2.22 µM (inactive)	18.7 µM (inactive)	2.43 µM (inactive)	1.65 µM (inactive)	3.58 µM	1.82 µM (inactive)	1.76 µM (inactive)	–
CCOc1ccc(NC(=S)N/C=C(/C(C)=O)C(=O)Nc2ccccc2C)cc1	7.35 µM (inactive)	> 100 µM (inactive)	> 100 µM (inactive)	> 100 µM (inactive)	> 100 µM (inactive)	> 100 µM (inactive)	> 100 µM (inactive)	> 100 µM (inactive)	–	59.8 µM (inactive)	> 100 µM (inactive)	> 100 µM (inactive)	> 100 µM (inactive)	> 100 µM (inactive)	> 100 µM (inactive)	> 100 µM	> 100 µM (inactive)	–	–
CC1(C)OC2OC(C(COS(=O)(=O)C(F)(F)F)N=[N+]=[N-])C(OC(=O)c3ccccc3)C2O1 (stereo unspecified)	–	> 100 µM (inactive)	> 100 µM (inactive)	> 100 µM (inactive)	> 100 µM (inactive)	> 100 µM (inactive)	> 100 µM (inactive)	> 100 µM (inactive)	> 100 µM (inactive)	> 100 µM (inactive)	> 100 µM (inactive)	> 100 µM (inactive)	> 100 µM (inactive)	> 100 µM (inactive)	> 100 µM (inactive)	> 100 µM	> 100 µM (inactive)	> 100 µM (inactive)	–
C1CSCCSCCSCCSC1	> 100 µM (inactive)	> 100 µM (inactive)	> 100 µM (inactive)	> 100 µM (inactive)	> 100 µM (inactive)	> 100 µM (inactive)	> 100 µM (inactive)	> 100 µM (inactive)	> 100 µM (inactive)	> 100 µM (inactive)	> 100 µM (inactive)	> 100 µM (inactive)	> 100 µM (inactive)	> 100 µM (inactive)	> 100 µM (inactive)	> 100 µM	> 100 µM (inactive)	–	–
c1cc2cc3c4c5c(cc6ccc7cc8cc9c%10c8c8c7c6c5c8c5c%10c(c1C9N1CCOCCOCCOCCOCCOCC1)c2c45)C3 (stereo unspecified)	> 100 µM (inactive)	> 100 µM (inactive)	> 100 µM (inactive)	> 100 µM (inactive)	> 100 µM (inactive)	> 100 µM (inactive)	> 100 µM (inactive)	> 100 µM (inactive)	–	> 100 µM (inactive)	> 100 µM (inactive)	> 100 µM (inactive)	> 100 µM (inactive)	> 100 µM (inactive)	–	> 100 µM	> 100 µM (inactive)	> 100 µM (inactive)	> 100 µM (inactive)
CCCCCC(C(O)C#N)C(O)(C(F)(F)F)C(F)(F)F (stereo unspecified)	> 10 µM (inactive)	> 10 µM (inactive)	> 10 µM (inactive)	> 10 µM (inactive)	–	> 10 µM (inactive)	> 10 µM (inactive)	> 10 µM (inactive)	–	> 10 µM (inactive)	> 10 µM (inactive)	> 10 µM (inactive)	> 10 µM (inactive)	> 10 µM (inactive)	> 10 µM (inactive)	> 10 µM	> 10 µM (inactive)	> 10 µM (inactive)	> 10 µM (inactive)
CN1CCN(c2ccc3nc(C4=C(O)C(=O)[C@@H]5C(=C4O)N=C(CO)N5C)[nH]c3n2)CC1	> 100 µM (inactive)	41.4 µM (inactive)	33.5 µM (inactive)	> 100 µM (inactive)	> 100 µM (inactive)	> 100 µM (inactive)	> 100 µM (inactive)	–	–	75.2 µM (inactive)	> 100 µM (inactive)	> 100 µM (inactive)	> 100 µM (inactive)	> 100 µM (inactive)	> 100 µM (inactive)	> 100 µM	61.1 µM (inactive)	> 100 µM (inactive)	–
